Measured values taken from PMC7279216, “Identification of Inhibitors to Trypanosoma cruzi Sirtuins Based on Compounds Developed to Human Enzymes” (International Journal of Molecular Sciences, 2020).
Where two headings read alike, the source gives them in different places.

Experiments:
[1] = Host cell cytotoxicity in high content assay; details: human
[2] = tested on: SIRT5; set-up: method as in ref 27 and unpublished results; details: ref 27 and unpublished results; cited from earlier work
[3] = tested on: T. cruzi Y H10 strain; test: High content assay (HCA), T. cruzi in vitro infection of U2OS cells; assay type: cell-based, Trypanosoma cruzi; details: for EC50: read-out: EC50 Value (reduces 50% of infected cells number); for SI (selectivity index = CC50/EC50): U2OS CC50 / T. cruzi EC50
[4] = tested on: SIRT1; set-up: method as in ref 22, 27 and unpublished results; details: 27 and unpublished results, cited from earlier work; for IC50: read-out: IC50 against human SIRT1
[5] = biological target: TcSir2rp3 (Trypanosoma cruzi, UniProt Q4E5B9); test: biochemical; details: for inhibition at 5 µM: read-out: % of inhibition of TcSir2rp3 deacetylase activity
Chain of TcSir2rp3 (Q4E5B9 entry or part of it): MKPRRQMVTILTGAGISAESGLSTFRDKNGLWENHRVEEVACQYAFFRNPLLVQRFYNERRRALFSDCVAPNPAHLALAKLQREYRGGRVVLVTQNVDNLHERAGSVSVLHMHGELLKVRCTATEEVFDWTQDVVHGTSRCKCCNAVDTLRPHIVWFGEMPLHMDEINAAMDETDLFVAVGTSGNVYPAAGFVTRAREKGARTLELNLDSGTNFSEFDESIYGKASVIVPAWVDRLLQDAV

[6] = tested on: SIRT2; set-up: method as in ref 22, 27 and unpublished results; details: 27 and unpublished results, cited from earlier work; for IC50: read-out: IC50 against human SIRT2
[7] = biological target: TcSir2rp1 (Trypanosoma cruzi, UniProt Q4DP02); test: biochemical; assay type: biochemical; details: for inhibition of TcSir2rp1 deacetylase activity: 5 µM
Chain of TcSir2rp1 (Q4DP02 entry or part of it): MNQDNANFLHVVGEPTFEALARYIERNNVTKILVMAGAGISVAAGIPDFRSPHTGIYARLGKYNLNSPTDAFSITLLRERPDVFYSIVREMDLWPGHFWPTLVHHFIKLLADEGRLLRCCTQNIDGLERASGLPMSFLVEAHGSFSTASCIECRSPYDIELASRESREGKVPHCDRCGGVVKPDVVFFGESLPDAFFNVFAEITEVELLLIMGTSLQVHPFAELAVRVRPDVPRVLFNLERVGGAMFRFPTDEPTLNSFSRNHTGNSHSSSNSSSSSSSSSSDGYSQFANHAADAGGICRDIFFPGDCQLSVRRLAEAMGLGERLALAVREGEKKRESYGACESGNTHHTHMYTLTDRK

[8] = tested on: T. cruzi Y H10 strain; test: Combinatory high content assay of SIRTi with BZN, T. cruzi in vitro infection; assay type: cell-based, Trypanosoma cruzi; details: for combinatory effect with benznidazole, overall: combination with BZN; for trypanocidal activity of SIRTi+BZN compared to BZN alone / trypanocidal activity of SIRTi+BZN compared to SIRTi alone: combination with BZN at constant EC50 ratios
[9] = U2OS cells infected with T. cruzi Y H10 trypomastigotes
[10] = Trypanosoma cruzi, U2OS, 96 h, U2OS cells infected with T. cruzi, 96 hours incubation
[11] = Ratio 1, EC50 ratio 1/32 (BZN 0.8 µM)
[12] = Ratio 2, EC50 ratio 1/16 (BZN 1.5 µM)
[13] = Ratio 3, EC50 ratio 1/8 (BZN 3 µM)
[14] = Ratio 4, EC50 ratio 1/4 (BZN 6 µM)
[15] = Ratio 5, EC50 ratio 1/2 (BZN 12 µM)
[16] = Ratio 6, EC50 ratio 1 (BZN 24 µM)
[17] = Ratio 7, EC50 ratio 2 (BZN 48 µM)

Compound | EC50 ([3]; Trypanosoma cruzi, U2OS, 96 h) [µM] | inhibition at 5 µM [5] [%] | IC50 against human SIRT2 [6] | CC50 at 96 h [1, 9] [µM] | EC50 [3, 10] [µM] | SI (selectivity index = CC50/EC50) [3] | IC50 [4] [µM] | IC50 ([5]; read-out: TcSir2rp3 IC50 ± SD) [µM] | IC50 [6] [µM] | inhibition of TcSir2rp1 deacetylase activity [7] | combinatory effect with benznidazole, overall [8] | trypanocidal activity of SIRTi+BZN compared to BZN alone [8] | further results
CCN1C(=O)/C(=C\c2ccc(-c3ccc(Cl)c(Cl)c3)o2)C(=O)NC1=S [Compound 30] | 42.7 | > 30 | single-digit micromolar | – | – | – | – | – | – | – | – | – | CC50 at 96 h [1]: > 100 µM; IC50 against human SIRT5 [2]: single-digit micromolar; IC50 against human SIRT1 [4]: single-digit micromolar
CC(CSc1cccc(/N=C/c2c(O)ccc3ccccc23)c1)c1ccccc1 (stereo not shown) [Compound 8] | – | > 30 | – | 76.8 | 40.6 | 1.89 | ~40 | 18.8 ± 5.34 | ~20 | – | – | – | –
O=C(CSc1nc(-c2ccccc2)c(Cc2c(O)ccc3ccccc23)c(=O)[nH]1)c1ccccc1 [Compound 13] | – | > 30 | single-digit micromolar | > 100 | 45.1 | > 2.2 | > 150 | 18.5 ± 1.97 | – | – | – | – | –
CCOC(=O)/C(=C\c1cc(C(=O)c2ccccc2OC)c[nH]1)C(=O)Nc1cccc2ncccc12 [Compound 27] | – | – | – | 46.9 | 5.73 | 8.18 | – | – | 10.5 | did not show potent inhibitory effect | – | – | % of inhibition of TcSir2rp3 deacetylase activity ([5]; 5 µM): did not show potent inhibitory effect
C=CCN1C(=O)/C(=C\c2ccc(-c3ccc(Cl)c(Cl)c3)o2)C(=O)NC1=S [Compound 32] | 39.8 | > 30 | single-digit micromolar | – | – | – | – | – | – | – | synergistic effects | not if compared to BZN alone | CC50 at 96 h [1]: 77 µM; type of interaction with BZN ([8]; all concentration ratios lower than 1/2): synergistic effect; trypanocidal activity of SIRTi+BZN compared to SIRTi alone [8]: increased the trypanocidal activity; IC50 against human SIRT5 [2]: single-digit micromolar; IC50 against human SIRT1 [4]: single-digit micromolar; IC50 [5]: 16.4 ± 6.7 µM
CCCN1C(=O)/C(=C\c2ccc(-c3ccc(Cl)c(Cl)c3)o2)C(=O)NC1=S [Compound 31] | – | – | – | – | – | – | – | – | – | – | – | – | IC50 [5]: 16.3 ± 9.54 µM
O=c1[nH]c(N/N=C/c2ccc([N+](=O)[O-])cc2)nc(-c2ccccc2)c1Cc1c(O)ccc2ccccc12 [Compound 17] | – | – | – | 19.6 | 8.5 | 2.31 | ~50 | – | ~50 | inhibited TcSir2rp1 activity | synergistic effects | no increase in trypanocidal activity | IC50 [7]: 25.5 ± 4.73 µM; CI (combinatory index) with BZN [8, 11]: 0.38; CI (combinatory index) with BZN [8, 12]: 0.69; CI (combinatory index) with BZN [8, 13]: 0.73; CI (combinatory index) with BZN [8, 14]: 0.74; CI (combinatory index) with BZN [8, 15]: 1.25; CI (combinatory index) with BZN [8, 16]: 2.45; CI (combinatory index) with BZN [8, 17]: 3.52; trypanocidal activity of SIRTi+BZN compared to SIRTi alone [8]: increase in the trypanocidal activity; type of interaction with BZN ([8]; ratios 1/2, 1, and 2): antagonistic effect; type of interaction with BZN ([8]; ratios lower than 1/4): tendency towards a synergistic effect
O=c1[nH]c(SCc2ccc3ccccc3c2)nc(-c2ccccc2)c1Cc1c(O)ccc2ccccc12 [Compound 12] | – | > 30 | single-digit micromolar | 48.8 | 35.4 | 1.38 | > 150 | 14.3 ± 6.06 | 6.3 | – | low or no synergism | no difference | type of interaction with BZN ([8]; 1/4 ratio): synergistic effect; CI (combinatory index) with BZN [8, 11]: 6.6; CI (combinatory index) with BZN [8, 12]: 13.2; CI (combinatory index) with BZN [8, 13]: 1.02; CI (combinatory index) with BZN [8, 14]: 0.82; CI (combinatory index) with BZN [8, 15]: 1.14; CI (combinatory index) with BZN [8, 16]: 1.48; CI (combinatory index) with BZN [8, 17]: 2.29; type of interaction with BZN ([8]; ratios 1/8, 1/2 and 1/1): additive effect; type of interaction with BZN ([8]; ratios lower than 1/8): antagonistic effect
O=C(Cn1ccnc1[N+](=O)[O-])NCc1ccccc1 [BZN, benznidazole, reference compound] | 1.96 | – | – | > 200 | – | > 102 | – | – | – | – | – | – | –
CCCCCSc1nc(-c2ccccc2)c(Cc2c(O)ccc3ccccc23)c(=O)[nH]1 [Compound 15] | – | – | single-digit micromolar | 36.4 | 19.4 | 1.89 | > 150 | – | – | inhibited TcSir2rp1 activity | – | – | IC50 [7]: 32.4 ± 7.88 µM; EC50 ([3]; U2OS cells infected with T. cruzi, 96 hours incubation): 19.4 µM
